Reference: paper PMC10854894, “A New Benzo[6,7]oxepino[3,2-b] Pyridine Derivative Induces Apoptosis in Canine Mammary Cancer Cell Lines” (Animals : an Open Access Journal from MDPI, 2024)
Read-outs that look alike come from different tables or passages of the source.

Assays:
Assay in all cases: MTT cell proliferation/cytotoxicity assay
Type in all cases: cell-based, canine
Settings in all cases: Canis lupus familiaris, read-out: Half-Maximal Inhibitory Concentration (IC50)
MDCK cells = test system: MDCK cells
Description: (§1) The cytotoxic effects of the three BZOP derivatives were studied via the 3-(4,5-Dimethyl-2-thiazolyl)-2,5-diphenyl-2H-tetrazolium bromide (MTT) assay. The REM134, CMGT071020, and MDCK cell lines were seeded at a density of 5 × 10^3 cells/well in 96-well plates and allowed to grow for 24 h. They were then treated with the three BZOP derivatives at various concentrations (0–300 µM) for 24 or 48 h, whereas cells treated with the culture medium containing 0.1% dimethyl sulfoxide (DMSO) were used as a negative control as the compounds were dissolved in DMSO. Subsequently, the cells were incubated with 10 µL of an MTT solution (Sigma, St. Louis, MO, USA) for 4 h. After the incubation with MTT solution, 100 µL of a solubilization solution was added to dissolve water-insoluble purple formazan crystals, and the plate was incubated overnight at 37 °C in 5% CO2. The absorbance of the formazan solution was measured using a Synergy H1 hybrid multi-mode microplate reader (BioTek, Winooski, VT, USA) at 570 nm. The experiment was conducted with four replicates, and the relative cell viability (%) of the treated cells was expressed as a percentage relative to the untreated control cells, which were considered to have 100% viability.

REM134 cells = test system: REM134 cells
Description: as §1

CMGT071020 cells = test system: CMGT071020 cells
Description: as §1

## Cc1ncccc1Oc1ccccc1C=O [MPOBA, 2-((2-methylpyridin-3-yl)oxy)benzaldehyde]
MDCK cells; 24 h
  IC50: > 300 µM
MDCK cells; 48 h
  IC50: 267 µM
REM134 cells; REM134, 24 h
  IC50: 265 µM
REM134 cells; REM134, 48 h
  IC50: 87 µM
CMGT071020 cells; CMGT071020, 24 h
  IC50: > 300 µM
CMGT071020 cells; CMGT071020, 48 h
  IC50: 104 µM
